Test results: patent US8703970B2, “Compounds having photochemically removable protecting groups based on an electrocyclic reaction between a chromophore attached via an anilide group to a benzothiophene ring” (Marquette University, priority 2012, dated 2014)
Where two headings read alike, the source gives them in different places.

Columns and labels:
Absorption spectra = format: physicochemical; conditions: for ε at absorption maximum: 385 nm; for ε at absorption maximum / absorption maximum: aqueous dioxane or acetonitrile
Protocol: (§1) For the ester ε=5600 M^−1 cm^−1, while the acid has ε=4200 M^−1 cm^−1. For preparative photolyses Pyrex-filtered light from a Hanovia medium pressure mercury lamp was used. A sunlamp was also effective at photolysing all of the compounds in the study. Quantum yields were determined at 390 nm using a monochromator for wavelength selection utilizing a high pressure mercury lamp as the light source.
Photoproduct 26 was identified by ^1H NMR spectroscopy and elemental analysis. […] Regioisomer 28 would have shown only four vicinal couplings in the COSY spectrum. […] The compound was obtainable only as a powder, despite repeated attempts to obtain crystals for structure determination using X-ray diffraction.

[1] = Product quantum yield determination for photochemical leaving group expulsion at 390 nm; format: physicochemical; conditions: for product quantum yield Φ: N2 saturated 19% H2O in dioxane containing 100 mM buffer (1.8×10^−3 M for 8; similar conditions for 7), products quantified by NMR; for quantum yield Φ for formation of 27: 2.0×10^−3 M acid in N2 saturated 75% aq buffer in CH3CN
Protocol: as §1
A semi-micro optical bench was used for quantum yield determinations, similar to the apparatus described by Zimmerman.^32 Light from a 200 W high-pressure mercury lamp was passed through an Oriel monochromator, which was set to 390 nm wavelengths. The light was collimated through a lens. A fraction of the light was diverted 90° by a beam splitter to a 10×3.6 cm side quartz cylindrical cell containing an actinometer. The photolysate was contained in a 10×1.8 cm quartz cylindrical cell of 25 mL volume. The concentrations of the reactants were 0.0018-0.0030 M. All quantum yields reported herein were the average of two or more independent runs. Behind the photolysate was mounted a quartz cylindrical cell containing 25 mL of actinometer. Light output was monitored by ferrioxalate actinometery using the splitting ratio technique.
For 7 (LG^−=Cl^−), 8 (LG^−=Cl^−), and 10 (LG^−=Cl^−) 50 mL of water was added to the photolysate, and the diluted photolysate was extracted four times with 30 mL of CH2Cl2. The combined extracts were washed twice with 30 mL water, brine, and concentrated in vacuo. The residue was dissolved in d6-DMSO. DMF was added as a standard for NMR analyses (vide infra). However, for 7 (LG^−=Cl^−) the NMR solvent was CDCl3 and the NMR standard was DMSO.
For 9 (LG^−=Cl^−, PhS^−, HS^−, PhCH2S^−) the photolysate was adjusted to pH 2 by addition of 3 N HCl. The resultant precipitate was collected by suction filtration and washed with 50 mL water. The precipitate was transferred to a flask, and any untransferred precipitate was dissolved in DMSO and combined with the transferred precipitate. The DMSO was evaporated to dryness under vacuum and DMSO-d6 was added along with DMF as a standard for NMR analysis.
Products were analyzed by ^1H NMR spectroscopy using DMF or DMSO as the internal standard and conversions were 12-16%. At the concentrations used most of the incident light would have been absorbed near the front face of the photolysis cell, raising the concern that the photoproducts formed during the photolyses could competitively absorb the incident light, reducing the light absorbed by the reactants. This internal filter effect would depress the observed Φ values below the actual values. In the case of 8 (LG^−=Cl^−) the Φ was thus redetermined at an 18-fold lower concentration of 1.0×10^−4 M of reactant and found to be within experimental error of the value obtained at higher concentration at 14% conversions for duplicate runs. Due to the very low concentrations of the photoproduct 26 formed, it had to be quantified by absorption spectroscopy of the exposed photolysates without any workup. The product absorption at 432 nm was deconvoluted from the tailing absorption of reactant using Origin 8.6 software (OriginLab). After deconvolution, concentrations were obtained from a calibration curve constructed from known mixtures of reactant and product.

[2] = Preparative photolysis with Pyrex-filtered Hanovia medium pressure mercury lamp, products quantified by NMR; format: physicochemical; conditions: for chemical yield of leaving group expulsion / photoproduct formation in preparative photolysis: N2 saturated aqueous 100 mM phosphate buffer (pH 7) in CH3CN, NMR integration
Protocol: as §1
Similarly, preparative photolysis of […] acid 9 (LG^−=Cl^−) in N2 saturated 75% H2O in CH3CN containing 100 mM phosphate buffer (pH 7) gave the single regioisomeric photoproduct 27 in 98% yield by NMR integration, as above for 8 (LG^−=Cl^−). The regiospecificity was again established by 600 MHz ^1H NMR COSY. […] Photolysis of acid 9 (LG^−=PhS^−, HS^−, PhCH2S^−) under the same conditions as 8 (LG^−=Cl^−) also gave photoproduct 27 in 98-100% yields upon expulsion of these thiolate leaving groups. For acid 9 (LG^−=PhCH2S^−) the released benzyl thiol was quantified in photolyses of 4.5×10^−3 M solutions of 35% D2O in CD3CN containing phosphate buffer (as above) contained in NMR tubes. Yields were 96% thiol and 99% of 27 at 100% conversion of reactant by ^1H NMR spectroscopy. Very similar results were found when DMSO-d6 was the photolysis solvent.
The regiospecific formation of 26 or 27 in the preparative photolyses of ester 8 or acids 9 requires the presence of the ester and carboxylic acid substituents attached to the C-6 position of the benzothiophene ring system of the reactants. In contrast, photolyses of the unsubstituted benzothiophene ring system 7 (LG^−=Cl^−) in 16% water containing 100 mM phosphate buffer in CH3CN gave both regioisomeric photoproducts 30 and 31 as a 42:58 mixture, respectively, in 100% yield according to 400 MHz ^1H NMR spectroscopy (Scheme 6).
To determine whether a “heavy atom effect” promoted intersystem crossing of the singlet excited state to the triplet excited state, work focused upon the C-7 bromide of thioxanthone ester 10 (LG^−=Cl^−). Preparative photolysis of ester 10 in N2 saturated 19% H2O in CH3CN containing 100 mM phosphate buffer (pH 7), as above for ester 8 (LG^−=Cl^−), exclusively gave regioisomer 32 in 99% yield, and 33 was not observed by ^1H NMR spectroscopy of the photolysate (Scheme 7).
A 0.010 M solution of 8 (LG^−=Cl^−) in N2 saturated 17% H2O in CH3CN containing 100 mM phosphate buffer at pH 7 was irradiated with a 450 W Hanovia medium pressure mercury lamp with a Pyrex filter for 90 min. The photoproduct was isolated by filtration. The photoproduct was washed with H2O and a small amount of CHCl3 and dried under vacuum. The product was a yellow powder, mp >300° C. […] A COSY spectrum in d6-DMSO was obtained (see Supporting Information).
A 0.010 M solution of 13 (LG^−=Cl^−) in N2 saturated 75% H2O in CH3CN containing 100 mM phosphate buffer at pH 7 was irradiated with a 450 W Hanovia medium pressure mercury lamp with Pyrex filter for 90 min. The photolysate was acidified to pH 2 with conc. HCl to precipitate the photoproduct carboxylic acid 27. The photoproduct was obtained by filtration, washing with H2O, and drying under vacuum, as a yellow powder, mp >300° C.
A 0.010 M solution of 7 (LG^−=Cl^−) in N2 saturated 17% H2O in CH3CN containing 100 mM phosphate buffer at pH 7 was irradiated with a 450 W Hanovia medium pressure mercury lamp with a Pyrex filter for 90 min. The photoproduct was isolated by filtration as a mixture of two isomers, 30, 31. The mixture of product isomers was dissolved in hot DMSO. Solid photoproduct isomer 31 was obtained upon cooling of the hot DMSO and filtration. Photoproduct isomer 31 was washed with water and methanol and dried under vacuum to obtain 31 as floppy powder, mp >300° C. Solid photoproduct isomer 30 was obtained upon addition of water to the above DMSO filtrate by filtration, after washing with water and methanol. The photoproduct isomer 30 was crystallized from CHCl3 to give a yellow crystalline solid, mp 271-273° C. […]

[3] = Photolysis with 120 W sunlamp for 72 h; format: physicochemical; conditions: gives exclusively product 26 or 27
Protocol: The photolyses of ester 8 (LG^−=Cl^−) and acids 9 (LG^−=Cl^−, PhS^−, HS^−, PhCH2S) were repeated with a 120 W sunlamp for 72 h under otherwise the same conditions described above for the Hanovia runs.

[4] = Stern-Volmer quenching of the photoreaction by piperylene; format: physicochemical
From the text: In air-saturated solution quantum yields for ester 8 (LG^−=Cl^−) decreased to Φ=0.019. […] Furthermore, quenching by 9.2-37×10^−[…] piperylene as quencher Q gave a slope kqτ=7.03×10^4 M^−1 for a Stern-Volmer plot Φ°/Φ vs. [Q](data not shown). If it is assumed that kq=ca. 10^10 M^−1 s^−1, then τ would be ca. 7 μs.

[5] = cited from earlier work
[6] = 4.5×10^−3 M in 35% D2O in CD3CN containing phosphate buffer, 100% conversion, 1H NMR

With “6-methylcarboxylate-[1]benzothiopheno[2,3-c]benzo[a]anthracene-4-methyl-4H-7-thia-4-aza-3,12-dione [compound 26]” the “ε at long wavelength maximum” value (Absorption spectra; 432 nm, aq dioxane containing phosphate buffer) was 10300 M⁻¹ cm⁻¹ and the “long wavelength absorption maximum” value (Absorption spectra; aq dioxane containing phosphate buffer) was 432 nm.

In the case of `CN(C(=O)c1sc2ccccc2c1Cl)c1ccc2sc3ccccc3c(=O)c2c1` [7 (LG^−=Cl^−), 3-chloro-benzo[b]thiophene-2-carboxylic acid methyl-(9-oxo-9H-thioxanthen-2-yl)amide], the “product quantum yield Φ” value ([1]; 390 nm) is reported as 0.069 and the “chemical yield of leaving group expulsion / photoproduct formation in preparative photolysis” value [2] is reported as 100%.

With `COC(=O)c1ccc2c(Cl)c(C(=O)N(C)c3ccc4sc5ccccc5c(=O)c4c3)sc2c1` [8 (LG^−=Cl^−), 3-chloro-2-[methyl-(9-oxo-9H-thiozanthen-2-yl)-carbamoyl]-benzo[b]thiophene-6-carboxylic acid methyl ester] the “product quantum yield Φ” value ([1]; 390 nm) was 0.039, the “quantum yield Φ for photoproduct 26” value ([1]; 390 nm, reactant concentration 1.0×10^−4 M, photoproduct quantified by absorption spectroscopy) was 0.037 and the “quantum yield Φ” value ([1]; air-saturated solution) was 0.019. The “quantum yields for reaction (photorelease of leaving group), overall” value ([1]; depending on LG^− basicity or reactant concentration) was 0.037-0.039, the “ε at absorption maximum” value (Absorption spectra) was 5600 M⁻¹ cm⁻¹ and the absorption maximum (Absorption spectra) was 385 nm. The “chemical yield of leaving group expulsion / photoproduct formation in preparative photolysis” value [2] was “nearly quantitative”, the “leaving group expulsion with sunlamp” value [3] was “essentially quantitatively” and the “Stern-Volmer slope kqτ” value ([4]; 9.2-37×10^−6 M piperylene as quencher, plot Φ°/Φ vs. [Q]) was 70300 M⁻¹. For the same compound, the “triplet excited state lifetime τ” value ([4]; assuming kq=ca. 10^10 M^−1 s^−1) was “ca. 7 μs”.

For `CN(C(=O)c1sc2cc(C(=O)O)ccc2c1Cl)c1ccc2sc3ccccc3c(=O)c2c1` [9 (LG^−=Cl^−), 3-chloro-2-[methyl-(9-oxo-9H-thioxanthen-2-yl)-carbamoyl]-benzo[b]thiophene-6-carboxylic acid], the “quantum yield Φ for formation of 27” value ([1]; 390 nm) was 0.034, the “ε at absorption maximum” value (Absorption spectra) was 4200 M⁻¹ cm⁻¹ and the absorption maximum (Absorption spectra) was 385 nm. For the same compound, the “chemical yield of leaving group expulsion / photoproduct formation in preparative photolysis” value [2] was 98%, the “leaving group expulsion with sunlamp” value [3] was “essentially quantitatively” and the melting point was 286 to 287 °C.

In the case of `CN(C(=O)c1sc2cc(C(=O)O)ccc2c1S)c1ccc2sc3ccccc3c(=O)c2c1` [9 (LG^−=HS^−), 3-mercapto-2-[methyl-(9-oxo-9H-thioxanthen-2-yl)-carbamoyl]-benzo[b]thiophene-6-carboxylic acid], the “quantum yield Φ for formation of 27” value ([1]; 390 nm) is reported as 0.0079, the “leaving group expulsion with sunlamp” value [3] is reported as “essentially quantitatively” and the melting point is reported as 210 to 212 °C.

In the case of `CN(C(=O)c1sc2cc(C(=O)O)ccc2c1SCc1ccccc1)c1ccc2sc3ccccc3c(=O)c2c1` [9 (LG^−=PhCH2S^−), 3-benzylsulfanyl-2-[methyl-(9-oxo-9H-thioxanthen-2-yl)-carbamoyl]-benzo[b]thiophene-6-carboxylic acid], the “quantum yield Φ for formation of 27” value ([1]; 390 nm) is reported as 0.011, the “yield of 27” value [2, 6] is reported as 99% and the “yield of released benzyl thiol” value [2, 6] is reported as 96%. The “leaving group expulsion with sunlamp” value [3] was “essentially quantitatively” and the melting point was 151 to 152 °C.

For `CN(C(=O)c1sc2cc(C(=O)O)ccc2c1Sc1ccccc1)c1ccc2sc3ccccc3c(=O)c2c1` [9 (LG^−=PhS^−), 2-[methyl-(9-oxo-9H-thioxanthen-2-yl)-carbamoyl]-3-phenylsulfanyl-benzo[b]thiophene-6-carboxylic acid], the “quantum yield Φ for formation of 27” value ([1]; 390 nm) was 0.017, the “leaving group expulsion with sunlamp” value [3] was “essentially quantitatively” and the melting point was 278 to 279 °C.

For `COC(=O)c1ccc2c(Cl)c(C(=O)N(C)c3ccc4sc5ccc(Br)cc5c(=O)c4c3)sc2c1` [10 (LG^−=Cl^−), 2-[(7-bromo-9-oxo-9H-thioxanthen-2-yl)-methyl-carbamoyl]-3-chloro-benzo[b]thiophene-6-carboxylic acid methyl ester], the “product quantum yield Φ” value ([1]; 390 nm) was 0.053, the “quantum yield higher than Φ=0.039 of ester 8 (LG^−=Cl^−)” value ([1]; bromo ester 10 vs ester 8) was 38% and the “chemical yield of leaving group expulsion / photoproduct formation in preparative photolysis” value [2] was 99%. It also gave a melting point of 237 to 239 °C.

For `O=c1c2ccccc2sc2ccccc12` [thioxanthone], the triplet lifetime ([5]; in CH3CN) is given as 6.7 μs, the triplet yield ([5]; nonpolar hydrocarbon solvent (cyclohexane)) is given as 0.85 and the triplet lifetime ([5]; polar protic solvent (methanol)) is given as 13.3 μs. For the same compound, the triplet yield ([5]; polar, protic solvent (CH3OH)) was 0.56.
